Values quoted from earlier work, collected in patent US20040220281A1, “Treatment of hormone-refractory prostate cancer” (priority 2003, published 2004).
Read-outs that look alike come from different tables or passages of the source.

Legend:
[1] = in vivo
[2] = in vitro
CYP 3A4 = CYP 3A4 (Homo sapiens, UniProt P08684)
[3] = molecular target: p-glycoprotein (P-gp) pump (Homo sapiens, UniProt P08183)
Chain of p-glycoprotein (P-gp) pump (P08183 whole entry): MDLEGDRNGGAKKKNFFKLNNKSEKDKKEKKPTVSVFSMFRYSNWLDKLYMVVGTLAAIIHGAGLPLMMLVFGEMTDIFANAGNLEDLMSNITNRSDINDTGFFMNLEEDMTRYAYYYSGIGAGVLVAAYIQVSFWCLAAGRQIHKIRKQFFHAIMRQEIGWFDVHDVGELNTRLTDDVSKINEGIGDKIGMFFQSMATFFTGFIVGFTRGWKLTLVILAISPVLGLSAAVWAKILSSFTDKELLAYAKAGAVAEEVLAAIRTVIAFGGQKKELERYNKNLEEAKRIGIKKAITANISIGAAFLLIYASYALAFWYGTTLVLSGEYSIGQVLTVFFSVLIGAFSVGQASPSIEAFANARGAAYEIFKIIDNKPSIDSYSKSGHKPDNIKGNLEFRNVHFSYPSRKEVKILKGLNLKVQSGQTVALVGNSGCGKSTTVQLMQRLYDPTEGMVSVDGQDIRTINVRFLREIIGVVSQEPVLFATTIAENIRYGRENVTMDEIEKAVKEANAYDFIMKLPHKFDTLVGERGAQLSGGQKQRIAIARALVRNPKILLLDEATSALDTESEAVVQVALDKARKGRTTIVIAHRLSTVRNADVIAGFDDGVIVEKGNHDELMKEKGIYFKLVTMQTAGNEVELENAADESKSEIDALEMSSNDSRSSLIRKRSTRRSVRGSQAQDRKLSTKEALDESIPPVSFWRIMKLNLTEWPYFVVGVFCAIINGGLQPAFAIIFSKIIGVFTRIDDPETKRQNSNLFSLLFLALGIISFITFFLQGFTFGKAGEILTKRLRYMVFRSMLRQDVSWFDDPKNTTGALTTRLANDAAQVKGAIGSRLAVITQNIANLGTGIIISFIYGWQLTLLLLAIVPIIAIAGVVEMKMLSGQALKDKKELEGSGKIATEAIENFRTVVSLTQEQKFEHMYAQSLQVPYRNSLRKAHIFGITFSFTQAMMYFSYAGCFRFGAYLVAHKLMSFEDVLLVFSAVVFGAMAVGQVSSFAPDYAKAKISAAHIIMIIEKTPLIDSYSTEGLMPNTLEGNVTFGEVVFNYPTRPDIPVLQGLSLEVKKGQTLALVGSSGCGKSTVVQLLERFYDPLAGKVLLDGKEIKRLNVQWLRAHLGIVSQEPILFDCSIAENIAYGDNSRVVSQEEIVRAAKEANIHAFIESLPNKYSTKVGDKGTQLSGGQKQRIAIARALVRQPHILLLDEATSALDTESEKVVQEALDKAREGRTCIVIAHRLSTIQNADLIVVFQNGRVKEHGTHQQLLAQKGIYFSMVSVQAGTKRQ

Chain of CYP 3A4 (P08684 whole entry, species assumed): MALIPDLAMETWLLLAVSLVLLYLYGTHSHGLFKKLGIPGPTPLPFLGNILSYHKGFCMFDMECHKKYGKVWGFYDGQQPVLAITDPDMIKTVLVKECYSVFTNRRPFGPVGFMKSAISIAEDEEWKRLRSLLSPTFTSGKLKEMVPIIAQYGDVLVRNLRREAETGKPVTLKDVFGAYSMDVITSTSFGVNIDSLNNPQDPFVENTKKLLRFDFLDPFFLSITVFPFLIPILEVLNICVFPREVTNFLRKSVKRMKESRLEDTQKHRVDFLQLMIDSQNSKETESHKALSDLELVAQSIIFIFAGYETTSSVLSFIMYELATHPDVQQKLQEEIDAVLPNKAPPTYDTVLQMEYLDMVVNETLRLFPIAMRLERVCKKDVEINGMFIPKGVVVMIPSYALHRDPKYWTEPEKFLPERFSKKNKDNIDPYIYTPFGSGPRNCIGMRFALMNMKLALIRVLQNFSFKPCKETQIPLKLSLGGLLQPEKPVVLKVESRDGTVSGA

CCN(CC)CCOc1ccc(Cc2ccccc2)cc1 [DPPE, N,N-diethyl-2-[4-(phenylmethyl)-phenoxy]ethanamine]
potentiation of cytotoxicity of a variety of antineoplastic drugs [1]: potentiates the cytotoxicity | potentiation of cytotoxicity of a variety of antineoplastic drugs [2]: potentiates the cytotoxicity | substrate for CYP 3A4 (CYP 3A4): potent substrate | inhibition of the p-glycoprotein (P-gp) pump [3]: inhibits
